Results on 6 compounds are retold here after patent publication US20260373248A1, “DEGRADABLE PEPTOIDS” (Medici Therapeutics, Inc., priority 2023, published 2026).

Starred links: 1 amine or outer side, 2 acyl side, 3 side chain; linkers in the order of their positions; H or OH if unused. Non-standard residues stand in square brackets, D forms with d. Residues, ends and D or L forms follow the SMILES beside them. *: point of attachment. Gly(N-(3-decanoyloxypropyl)) = CCCCCCCCCC(=O)OCCCNCC(=O)O; N(3-lauroyloxypropyl)Gly = CCCCCCCCCCCC(=O)OCCCNCC(=O)O; Gly(N-(CH2)3O-octanoyl) = CCCCCCCC(=O)OCCCNCC(=O)O; Gly(N-3-morpholinopropyl) = O=C(O)CNCCCN1CCOCC1; N(2-ethylhexyl)Gly = CCCCC(CC)CNCC(=O)O; X1 = CCCCC(CC)CSSCCN(CC(=O)[*:2])[*:1]; X3 = CCCCCCCCSSCCN(CC(=O)[*:2])[*:1]; N(CH(CH2OH)2)Gly = O=C(O)CNC(CO)CO; N(octyl)Gly = CCCCCCCCNCC(=O)O; NDecylGly = CCCCCCCCCCNCC(=O)O; For = O=C*

Series [1] relates to hEPO. As to the kind of experiment: Quantification of hEPO in serum after IV injection of mRNA (Human EPO ELISA). The series is classed as in vivo. The note with it: Balb/c mice, 2.5 μg mRNA IV, serum after 6 hours. As to the method:
Balb/c mice were treated with 2.5 μg of mRNA coding for human erythropoiten via IV injection according to a similar method as in Example 4. hEPO protein in the serum was quantified after 6 hours using the Human EPO ELISA Kit from Invitrogen (catalog #BMS2035-2). Wash buffer (PBS with 1% tween 20) and assay buffer (PBS with 1% tween 20, 10% BSA) were prepared from a 20× concentrate with milli-Q water. Serum samples were diluted with PBS according to expected EPO concentration, with a 50× dilution for low expression samples and up to a 30,000× dilution for samples expected to have high expression. Microwell strips were washed in a plate washer with wash buffer and tapped on an absorbent pad to remove excess buffer. 100 μL of sample diluent were added to each well that will be used for the standard curve. 50 μL of sample diluent was added to each sample well.
The standard curve was prepared by reconstituting the human erythropoietin standard by adding the volume of water listed on the vial label. Standard was swirled gently and allowed to reconstitute for 10 minutes prior to use, then 100 μL is added to standard wells and mixed well. 100 μL from standard wells were then transferred to sample wells and mixed well. This was repeated 5 times to produce 2 columns of standard dilutions from 100 to 1.6 mIU/mL. 100 μL was discarded from the last microwells. The final 2 wells contained 100 μL of sample diluent and served as a blank. An external standard was also included to facilitate a mIU/mL conversion to ng/mL. The same serial dilution method was repeated starting with the external standard at 6.25 ng/mL. Once the standards were added, 50 μL of each sample was added in duplicate to the sample wells. Next, the biotin-conjugate was prepared by diluting 1:100 in assay buffer. 50 μL of biotin-conjugate was added to all wells and the plate was covered with a plate seal and shaken at room temperature for 1 hour. During the last few minutes of shaking, streptavidin-HRP was prepared by diluting 1:100 in assay buffer. The plate was washed on a plate washer and tapped on an absorbent pad to remove remaining wash buffer.
100 μL of the diluted streptavidin-HRP was added to each well and the plate was sealed and shaken for 15 minutes at room temperature. After 15 minutes, the plate seal was removed and the plate was washed on a plate washer and remaining wash buffer tapped out on an absorbent pad. 100 μL of TMB substrate was added to all wells and the plate was incubated for 10 minutes at room temperature out of direct light. Color development was checked every few minutes and the assay was stopped when the highest standard was dark blue. The reaction was stopped by pipetting 100 μL of stop solution into each well. Immediately after stop solution was added, the plate was gently tapped to ensure the solution was mixed. Absorbance was then read at 450 nm for each well. A standard curve was plotted for both the kit-provided standards (mIU/mL) and the external standard (ng/mL) and fit using Prism. Sample absorbances that fell within the standard curve were interpolated and adjusted for dilution (including a 2× assay dilution). Samples that were not within the standard curve were repeated at an adjusted dilution.

For series [2], the system named is luciferase. As to the kind of experiment: Luciferase expression after local (intramuscular or subcutaneous) administration of mRNA. The series is classed as in vivo. To be noted: mRNA 0.01 mpk, 6 hours; for IM Flux: intramuscular; for SC Flux: subcutaneous. As to the method:
(§1) All animal studies were conducted under accreditation by the California State Department of Public Health and under supervision of IACUC and Veterinarian Supervision. For imaging studies, female Balb/c mice (6-8 weeks old) were obtained and acclimatized for a minimum of 3 days prior to experiments. The animals were maintained on a 12 hour light cycle in a temperature and humidity controlled room. A daily health check was performed as well as food and water check. For dosing, mice were injected with 2.5 ug fLuc mRNA-containing Nutshells intravenously in 100 μL total injection value. At 6 hours post-injection, mice were anesthetized with isoflurane, injected IP with 30 mg/mL D-luciferin at a dose of 10 μL per gram bodyweight intraperitoneally. Imaging was done 10 minutes post D-luciferin injection using an IVIS Spectrum Imaging System (Caliper Life Sciences). Immediately after in vivo imaging, mice were terminally bled by cardiac puncture and euthanized. The organs of interest were harvested, placed in black 24-well plates, and imaged. Living Image software (Perkin Elmer) was used to quantify the total photon flux in regions of interest.
Aminolipidated peptoids were also effective for local administration of mRNA through subcutaneous (S.C.) or intramuscular (I.M.) routes of administration. For these examples, mRNA was administered at a dose of 0.1 mpk for intratomoral, or 0.01 mpk for subcutaneous and intramuscular administration, and the resulting bioluminescence quantified after 6 hours according to a similar procedure as described in Example 4.

Series [3] can be described thus: Delivery vehicle size and polydispersity by dynamic light scattering. Format: physicochemical. As to the method:
Delivery vehicles were formulated by rapid microfluidic mixing using a high throughput microfluidic system. Briefly, ethanol solutions containing peptoid, DSPC, Cholesterol, DMG-PEG2000 at weight ratio of 20:1.79:7.16:1.84, were mixed with 10 mM sodium citrate buffer (pH 5.0) containing synthesized mRNA at a ratio of 1:3 by volume. Peptoid based LNPs were subsequently dialyzed against 1-2 liters of tris-sucrose buffer (TS7, pH 7.4) overnight at 4 °C. Delivery vehicle size and polydispersity (PDI) was measured by dynamic light scattering in PBS.
(§2) Degradable peptoids described herein were formulated as various formulations described in Table 3 according to the procedure described in Example 2. Particle size was characterized as described in Example 2, and […] encapsulation of mRNA was determined as described in Example 3.

The test system of series [4] is mRNA. As to the kind of experiment: mRNA encapsulation (modified Quant-iT RiboGreen assay). The series is classed as physicochemical. The note with it: for mean percent encapsulation of RNA: RiboGreen, without vs with Triton X-100; for % Encapsulation: mRNA. As to the method:
The mRNA concentration and the percentage of encapsulated mRNA were determined using fluorescent-based Quant-iT RiboGreen RNA Reagent Kit (Life Technologies, Waltham, MA) as described previously. To determine the mRNA concentration, PNPs was incubated with […] for 10 min to release entrapped mRNA, followed by addition of RiboGreen RNA reagent. The fluorescence intensity of mRNA-RiboGreen reagent complex (excitation at 485 nm and emission at 530 nm) was detected using a microplate reader. The ratio of fluorescence without and with Triton X-100 were used to calculate the percentage of encapsulated mRNA.
as §2

The test system of series [5] is firefly luciferase. As to the kind of experiment: In vivo firefly luciferase expression after intravenous injection of fLuc mRNA delivery vehicles (IVIS imaging). Further details: species or system female Balb/c mice. The note with it: for Total Flux: mice, 2.5 ug fLuc mRNA intravenously, 6 hours post-injection; for Total Flux (luciferase expression): fLuc mRNA, intravenous, Balb/c mice. As to the method:
as §1
Luciferase expression in these formulations was also determined as described in Example 4.

The mark [6] stands for this setting: DLS in PBS, peptoid:DSPC:Cholesterol:DMG-PEG2000 weight ratio 20:1.79:7.16:1.84, mRNA.

For the compound `CCCCCCCCCCCC(=O)OCCCN(C=O)CC(=O)N(CCCOC(=O)CCCCCCCCCCC)CC(=O)N(CC(=O)N(CCCN1CCOCC1)CC(=O)N(CC(=O)N(CCCOC(=O)CCCCCCCCCCC)CC(=O)N(CCCOC(=O)CCCCCCCCCCC)CC(N)=O)CC(CC)CCCC)CC(CC)CCCC` (stereo not drawn) [Compound 91] (For-[N(3-lauroyloxypropyl)Gly][N(3-lauroyloxypropyl)Gly][N(2-ethylhexyl)Gly][Gly(N-3-morpholinopropyl)][N(2-ethylhexyl)Gly][N(3-lauroyloxypropyl)Gly][N(3-lauroyloxypropyl)Gly]-NH2), the hEPO in series [1] was 17.4 ng/mL. In series [2], the “IM Flux” value is 2.44E+08 p/s and the “SC Flux” value is 4.22E+07 p/s.

Take `CCCCCCCC(=O)OCCCN(C=O)CC(=O)N(CCCOC(=O)CCCCCCC)CC(=O)N(CCSSCC(CC)CCCC)CC(=O)N(CCCN1CCOCC1)CC(=O)N(CCSSCC(CC)CCCC)CC(=O)N(CCCOC(=O)CCCCCCC)CC(=O)N(CCCOC(=O)CCCCCCC)CC(N)=O` (stereo not drawn) [Compound 133] (For-[Gly(N-(CH2)3O-octanoyl)][Gly(N-(CH2)3O-octanoyl)][X1][Gly(N-3-morpholinopropyl)][X1][Gly(N-(CH2)3O-octanoyl)][Gly(N-(CH2)3O-octanoyl)]-NH2): in series [3] (setting [6]), the PDI turned out to be 0.083 and the “Particle Size” value turned out to be 76.9 nm. In addition, in series [4], the “mean percent encapsulation of RNA” value worked out at 86.7%. In series [2], the “IM Flux” value was found to be 1.08E+07 p/s and the “SC Flux” value is reported as 3.73E+07 p/s. In addition, in series [5], the “Total Flux” value amounted to 2.80E+08 p/s.

On to `CCCCCCCCCCN(CC(=O)N(CCSSCC(CC)CCCC)CC(=O)N(CCCOC(=O)CCCCCCC)CC(N)=O)C(=O)CN(CCSSCC(CC)CCCC)C(=O)CN(CCCOC(=O)CCCCCCC)C(=O)CN(CC(CC)CCCC)C(=O)CNC(CO)CO` (stereo not drawn) [Compound 130] (H-[N(CH(CH2OH)2)Gly][N(2-ethylhexyl)Gly][Gly(N-(CH2)3O-octanoyl)][X1][NDecylGly][X1][Gly(N-(CH2)3O-octanoyl)]-NH2), for which, in series [3] (setting [6]), the PDI turned out to be 0.086 and the “Particle Size” value amounted to 75.5 nm. In addition, the “mean percent encapsulation of RNA” value in series [4] is given as 86.0%. In addition, in series [2], the “IM Flux” value is given as 2.72E+08 p/s and the “SC Flux” value is recorded as 1.92E+08 p/s. Also, the “Total Flux” value in series [5] came to 4.45E+09 p/s.

As to `CCCCCCCCSSCCN(CC(=O)N(CCCN1CCOCC1)CC(=O)N(CCSSCCCCCCCC)CC(=O)N(CCCOC(=O)CCCCCCC)CC(=O)N(CCCOC(=O)CCCCCCC)CC(N)=O)C(=O)CN(CCCOC(=O)CCCCCCC)C(=O)CN(C=O)CCCOC(=O)CCCCCCC` [Compound 134] (For-[Gly(N-(CH2)3O-octanoyl)][Gly(N-(CH2)3O-octanoyl)][X3][Gly(N-3-morpholinopropyl)][X3][Gly(N-(CH2)3O-octanoyl)][Gly(N-(CH2)3O-octanoyl)]-NH2), in series [3] (setting [6]), the PDI worked out at 0.062 and the “Particle Size” value is listed as 73.8 nm. Besides, in series [4], the “mean percent encapsulation of RNA” value amounted to 83.7%. In series [2], the “IM Flux” value came out at 6.40E+07 p/s and the “SC Flux” value turned out to be 1.60E+08 p/s. Moreover, the “Total Flux” value in series [5] worked out at 5.63E+08 p/s.

As for `CCCCCCCC(=O)OCCCN(CC(=O)N(CCCOC(=O)CCCCCCC)CC(=O)N(CCSSCC(CC)CCCC)CC(=O)N(CCCOC(=O)CCCCCCC)CC(=O)N(CCCOC(=O)CCCCCCC)CC(=O)N(CCSSCC(CC)CCCC)CC(N)=O)C(=O)CNC(CO)CO` (stereo not drawn) [Compound 128] (H-[N(CH(CH2OH)2)Gly][Gly(N-(CH2)3O-octanoyl)][Gly(N-(CH2)3O-octanoyl)][X1][Gly(N-(CH2)3O-octanoyl)][Gly(N-(CH2)3O-octanoyl)][X1]-NH2), in series [3] (setting [6]), the PDI was 0.098. The “Particle Size” value stood at 62.1 nm in series [3] (setting [6]); 62.1 nm in series [3] (formulation recipe D22); 77.5 nm in series [3] (formulation recipe R3); 73.6 nm in series [3] (formulation recipe R4); 82.7 nm in series [3] (formulation recipe R7); 78.9 nm in series [3] (formulation recipe R8). Also, the “mean percent encapsulation of RNA” value in series [4] stood at 89.5%. Besides, the “% Encapsulation” value in series [4] (formulation recipe D22) was 89.5%; in series [4] (formulation recipe R3) it was 89.5%; in series [4] (formulation recipe R4) it was 87.7%; in series [4] (formulation recipe R7) it was 92.5%; in series [4] (formulation recipe R8), 94.4%. Moreover, in series [2], the “IM Flux” value is on record as 4.20E+08 p/s. Also, the “SC Flux” value in series [2] worked out at 6.68E+08 p/s. The “Total Flux (luciferase expression)” value was 4.01E+09 p/s in series [5] (formulation recipe D22); 5.39E+08 p/s in series [5] (formulation recipe R3); 5.47E+08 p/s in series [5] (formulation recipe R4); 1.09E+09 p/s in series [5] (formulation recipe R7); 5.73E+08 p/s in series [5] (formulation recipe R8). For the same compound, the “Total Flux” value in series [5] is 4.01E+09 p/s.

As to `CCCCCCCCCC(=O)OCCCN(CC(=O)N(CCSSCC(CC)CCCC)CC(N)=O)C(=O)CN(CCCCCCCC)C(=O)CN(CCSSCC(CC)CCCC)C(=O)CN(CCCOC(=O)CCCCCCCCC)C(=O)CN(CCCCCCCC)C(=O)CNC(CO)CO` (stereo not drawn) [Compound 129] (H-[N(CH(CH2OH)2)Gly][N(octyl)Gly][Gly(N-(3-decanoyloxypropyl))][X1][N(octyl)Gly][Gly(N-(3-decanoyloxypropyl))][X1]-NH2), in series [3] (setting [6]), the PDI amounted to 0.101 and the “Particle Size” value came out at 61.2 nm. In series [4], the “mean percent encapsulation of RNA” value is on record as 89.2%. Besides, in series [2], the “IM Flux” value is listed as 2.00E+08 p/s and the “SC Flux” value is 3.41E+08 p/s. In addition, in series [5], the “Total Flux” value was 1.06E+09 p/s.
